From patent US11319336B2, “Ship inhibitors and uses thereof” (The Research Foundation For The State University Of New York, priority 2010, dated 2022)
“Also recorded” adds a separate entry of the source.

Assays:
[1] = test system: MIR cell numbers; test: MIR cell induction in treated mice; assay type: in vivo; settings: FIG. 6C, D
Protocol: (§1) [Noto bene: DRV-IV-26=3A5AS]
The solubility of 3AC was assessed by calculating the distribution coefficient (CLogD). This calculation estimates the CLogD for 3AC at 7.17 indicating the molecule is very lipophilic. Thus, we have begun to develop novel 3AC analogs with increased aqueous solubility. One of these compounds, 3A5AS, has a CLogD of 3.33. Lipinski's rules (a common measure of small molecule pharmacokinetics) recommend a ClogD of <5 for in vivo applications.

[2] = target: T1, recombinant SHIP1 (Homo sapiens, UniProt Q92835); test: Malachite Green phosphatase assay for SHIP1 activity against PI(3,4,5)P3 substrate; assay type: biochemical
T1 sequence (Q92835 1-1189): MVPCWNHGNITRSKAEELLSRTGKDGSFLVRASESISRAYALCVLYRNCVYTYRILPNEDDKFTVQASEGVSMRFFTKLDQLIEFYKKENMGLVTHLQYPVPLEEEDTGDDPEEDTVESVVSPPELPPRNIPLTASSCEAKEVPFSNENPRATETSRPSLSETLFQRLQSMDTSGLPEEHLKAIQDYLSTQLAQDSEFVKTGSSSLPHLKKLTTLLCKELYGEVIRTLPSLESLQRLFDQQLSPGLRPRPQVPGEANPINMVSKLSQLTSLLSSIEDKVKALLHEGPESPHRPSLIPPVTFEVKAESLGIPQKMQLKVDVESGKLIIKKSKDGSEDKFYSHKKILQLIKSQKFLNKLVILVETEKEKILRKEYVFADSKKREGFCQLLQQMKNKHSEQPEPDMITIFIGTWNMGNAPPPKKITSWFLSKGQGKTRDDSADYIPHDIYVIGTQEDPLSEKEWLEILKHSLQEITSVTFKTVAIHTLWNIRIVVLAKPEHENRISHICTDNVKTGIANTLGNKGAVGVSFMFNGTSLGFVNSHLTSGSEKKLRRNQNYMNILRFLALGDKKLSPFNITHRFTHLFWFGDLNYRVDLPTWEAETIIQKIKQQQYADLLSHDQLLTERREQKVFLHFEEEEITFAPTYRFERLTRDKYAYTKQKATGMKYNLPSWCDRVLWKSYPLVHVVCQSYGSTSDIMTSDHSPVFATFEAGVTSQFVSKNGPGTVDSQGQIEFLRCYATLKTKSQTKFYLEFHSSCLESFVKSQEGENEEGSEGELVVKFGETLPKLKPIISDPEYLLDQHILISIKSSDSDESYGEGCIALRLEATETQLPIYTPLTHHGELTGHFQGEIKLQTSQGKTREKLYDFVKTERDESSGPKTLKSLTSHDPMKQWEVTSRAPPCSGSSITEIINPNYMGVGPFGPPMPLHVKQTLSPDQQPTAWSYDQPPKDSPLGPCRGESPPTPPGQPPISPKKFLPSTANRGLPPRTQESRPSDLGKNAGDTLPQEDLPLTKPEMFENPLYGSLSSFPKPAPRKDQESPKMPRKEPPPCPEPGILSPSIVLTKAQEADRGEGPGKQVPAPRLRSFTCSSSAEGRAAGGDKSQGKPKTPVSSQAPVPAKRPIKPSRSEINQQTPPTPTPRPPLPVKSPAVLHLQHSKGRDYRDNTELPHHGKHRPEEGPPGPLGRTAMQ
Protocol: Absorbance is recorded at 620 nm, smaller numbers indicate a lack of green color and inhibition of the phosphatase.
as §1

| SMILES | Concentration inducing a comparable MIR cell increase in vivo [1] [µM] | Potency at inducing MIR cell numbers in vivo, compared with 3AC [1] | Inhibition of recombinant SHIP1 activity in vitro, compared with 3AC ([2]; Malachite Green assay, PI(3,4,5)P3 substrate, FIG. 5B / FIG. 6A) | SHIP1 inhibition by lack of green color ([2]; SHIP1 malachite phosphatase assay, FIG. 1, visual readout) |
| --- | --- | --- | --- | --- |
| C[C@@]12CCC[C@H]1[C@@H]1CC[C@H]3C[C@H](N)CC[C@]3(C)[C@H]1CC2 [Example 3A5AS, 3α-amino-5α-androstane] | 15 | more potent | equal inhibitory activity; also recorded: equally potent | – |
| CC(C)CCC[C@@H](C)[C@H]1CC[C@H]2[C@@H]3CCC4C[C@H](N)CC[C@]4(C)[C@H]3CC[C@]12C (some centres unmarked) [Example 3AC, reference compound] | 60 | – | – | – |
| CCN [ethylamine] | – | – | – | poor inhibitor |
